In brackets after ≈: the same amount, converted by molar mass. Entries after “also recorded” stand apart in the source; their conditions may differ. Each block holds one compound with its values, some of them ahead of it.
Assays:
immortalised human cells = test: In vitro cellular model in NASH/NAFLD: intracellular lipid droplet content; assay type: cell-based; details: enriched medium, increasing concentrations, 24 hours
From the text: The applicant decided to explore in vitro approaches to test fenofibric acid as a medicinal product inhibiting progression of non-alcoholic fatty liver disease/steatohepatitis. In this field, only a few data obtained in NASH/NAFLD using cellular models have been published, whereas for other liver diseases, the research models and means are more numerous and more studied. In general, immortalised cell lines and primary cell cultures are widely used to develop in vitro models for research. The immortalised primary cells are candidate cells selected for the in vitro study due to the stable phenotype thereof, but also due to a culture method that is simple and standardised to carry out. The immortalised human cells were cultured in an enriched medium containing increasing fenofibric acid concentrations. The purpose of the study consisted of measuring the intracellular lipid droplet content. The entire staining procedure is conducted at ambient temperature while protecting the samples from direct light. The images were acquired with a fluorescence microscope. The intracellular lipid droplet content was determined by labelling. […] This trend is all the more noteworthy at the highest fenofibric acid concentration wherein the quantity and size of the droplets decreased in relation to that observed with the lowest dose.

[1] = Aqueous phase solubility as a function of pH / medium; assay type: physicochemical
[2] = In vitro oral penetration study, Franz type diffusion cells; assay type: in vitro ADME, pig; details: 37° C., different concentrations and pH 4.5-7.4
Procedure: One of the preferred modes of administration is the oral mucous membrane route. In order to achieve this, the applicant prepared fenofibric acid solutions from samples provided by the supplier Harman Finochem (India). The in vitro penetration of the fenofibric acid formulation is evaluated using Franz type diffusion cells at 37° C., a system routinely used to evaluate the in vitro penetration of compounds through the skin, but with the oral mucous membrane as the membrane in this instance.
The applicant chose pig oral tissue because it has a non-keratinised morphology, relatively similar to the human oral epithelium (Gandhi, R. B. and Robinson. Adv Drug Deli Rev, 13:43-74, 1994). […]
The receptor compartment is filled with pH 7.4 buffer at 37° C. and the donor compartment with micronised fenofibric acid solution at 37° C. of different concentrations (from 0.2 mg/ml) with a pH also adjusted to pH 7.4 or a solution of fenofibric acid (0.5 mg/ml) in buffer solutions of different pH (4.5, 6.0, 6.8 and 7.4). Samples are taken from the receptor compartment at a predetermined time interval (2, 5, 10, 15, 30, 60, 90, 120, 150 and 180 minutes), replaced by the same volume of buffer and subsequently analysed using the HPLC method.
The quantity of fenofibric acid presented in the […] compartment is determined as a function of time. […]

[3] = Solubility in 50:50 binary mixture with a surfactant; assay type: physicochemical
mouse model of NASH = test: In vivo mouse model of non-alcoholic steatohepatitis; details: mice on high-fat feed and fructose water, per os once daily
Procedure: Fenofibric acid is studied at 2 doses and administered per os once daily. […] The number of male mice is 60 for the curative part of the study. They follow the normal light cycle, and are divided into enriched ventilated cages, after a one-week acclimatisation period. The mice are fed with high-fat content feed and fructose-enriched tap water. The mice are treated with the references or with the test formulation according to 2 doses, with daily administration per os for about 2 months. […] At different weeks of treatment, blood is collected to measure the blood glucose level, insulin, total cholesterol and triglyceride level, as well as the ALT and AST levels. After the final collection, the mice are sacrificed to measure the total hepatic cholesterol, triglycerides and fatty acid levels. Liver samples are also collected for histological analysis and the NAS score/index.

[4] = Dissolution kinetics, USP type II paddle; assay type: physicochemical; details: for fenofibric acid dissolved: FaSSIF and FeSSIF media
Procedure: The applicant studied the dissolution profile of several batches of fenofibric acid received from several suppliers. The starting material batches include different granulometric characteristics including one standard grade (non-micronised) and several micronised batches.
The batches of fenofibric acid were prepared in various pharmaceutical forms including the following excipients: hypromellose, milk protein concentrate, corn starch, Lactose monohydrate (0.4 mg/50 mg of active ingredient), sodium lauryl sulphate as surfactant, magnesium stearate, and talc as a flow agent required during production.
Dissolution tests were carried out on most of the formulation in media such as acetate buffer at […] and purified water. Similarly, the rings were tested in […] media simulating fed and fasting conditions, with addition of enzymes (media referred respectively as FeSSIF and FaSSIF) were also tested after the 50 and 100 mg doses. The USP type II paddle system was retained for the tests with 1000 ml of volume, 37° C. and the samples, taken at 0, 2, 5, 10, 15, 20, 30, 45 and 60 minutes, were analysed by HPLC without replenishing the media.

[5] = Solubility at saturation of salts and crystalline forms, buffered solution pH 6.0; assay type: physicochemical; details: aqueous buffer pH 6.0, after 24 hours of stirring, European Pharmacopoeia criteria
Procedure: The purpose of this example is to determine the solubility characteristics of different crystalline forms and salts of fenofibric acid, with a view to administration by the oral mucosal route, in order to treat or forestall patients of liver diseases, such as fatty liver disease.
The solubilisation kinetics are determined by placing fenofibric acid samples at an excess in an aqueous buffered solution at pH 6.0, equivalent to salivary pH. Samples are taken after 0.5, 1, 2, 4, 6, 12 and 24 hours. They are analysed by HPLC after centrifugation and filtration of the samples on a 0.45 μm PTFE filter.
The samples are received from several Indian and Chinese suppliers. Fenofibric acid form II is obtained from a suspension of fenofibrate (ester) in isopropanol.
The results in terms of solubility at saturation (after 24 hours of stirring) are given in the table below and are expressed as per the criteria of the European Pharmacopoeia in force at the time of the tests. The melting points are obtained by DSC (endothermic peak, onset measurement).

solubility ([1]; 0.01M sodium lauryl sulphate, aqueous with cosolvent or surfactant or cyclodextrin): 90 µg/mL (≈ 282 µM) | solubility ([1]; 0.1M sodium lauryl sulphate, aqueous with cosolvent or surfactant or cyclodextrin): 810 µg/mL (≈ 2540 µM) | solubility ([1]; 0.1N HCl, simulated gastric fluid): 2 µg/mL (≈ 6.27 µM) | solubility ([1]; aqueous buffer, Phosphate buffer pH = 4.5): 40 µg/mL (≈ 125 µM) | solubility ([1]; aqueous buffer, Phosphate buffer pH = 5.5): 330 µg/mL (≈ 1040 µM) | solubility ([1]; aqueous buffer, Phosphate buffer pH = 6.5): 1060 µg/mL (≈ 3330 µM) | solubility as a function of pH ([1]; greatest at pH values closest to neutrality): increases as a function of pH | solubility ([1]; purified water, water): 20 µg/mL (≈ 62.7 µM) | Solubility in water ([3]; surfactant Cremophor EL, 50:50 binary mixture): 56 mg/g | Solubility in water ([3]; surfactant Cremophor RH40, 50:50 binary mixture): 59 mg/g | Solubility in water ([3]; surfactant Labrasol, 50:50 binary mixture): 55 mg/g | Solubility in water ([3]; surfactant Solutol HS15, 50:50 binary mixture): 60 mg/g | Solubility in water ([3]; surfactant Tween 80, 50:50 binary mixture): 61 mg/g | fenofibric acid dissolved ([4]; after 10 minutes): over 80% | fenofibric acid dissolved ([4]; after 30 minutes): entirety | dissolution of the active ingredient alone ([4]; after 60 minutes, paddle, 1000 ml, 37° C.): totally dissolved
Compound: CC(C)(Oc1ccc(C(=O)c2ccc(Cl)cc2)cc1)C(=O)O [fenofibric acid, 2-(4-(4-chlorobenzoyl)phenoxy)-2-methylpropanoic]
intracellular lipid droplet content (immortalised human cells): dose-dependent fat reduction | penetration through the porcine oral mucous membrane [2]: noteworthy penetration; also recorded: rapidly absorbed | increase in the triglyceride level (mouse model of NASH): significantly inhibit the increase | increase in the weight of the liver (mouse model of NASH): significantly inhibit the increase | plasma ALT concentration (mouse model of NASH): decreased substantially | development of fatty liver disease (macroscopic and microscopic examination of the liver) (mouse model of NASH; about 2 months): prevented the development of fatty liver disease | plasma ALT concentration (mouse model of NASH; listed as Fenofibric acid): notably reduced | increase in the fatty liver disease activity score (mouse model of NASH; liver histology): significantly inhibit the increase | increase in the fibrotic zones (mouse model of NASH; liver histology): significantly inhibit the increase

Solubility at saturation [5]: Slightly soluble
Compound: CC(C)(Oc1ccc(C(=O)c2ccc(Cl)cc2)cc1)C(=O)O [Fenofibric acid form II]

Reference: US20190247343A1, “USE OF FENOFIBRIC ACID IN THE TREATMENT OF HEPATIC DISEASES” (GENCOD, priority 2016, published 2019)
